Reference: US9927437B2, “Treating neurodegenerative disease” (THE BRIGHAM AND WOMEN'S HOSPITAL, INC., priority 2013, dated 2018)

Experiments:
EAE NOD mice = experiment: EAE in NOD mice, progressive phase (clinical score, histopathology, body weight); type: in vivo; conditions: NOD EAE; i.c.v. 1×10^7 IU lentivirus at day 35
astrocytes = experiment: mRNA expression in astrocytes isolated from EAE NOD mice (nCounter, qPCR); type: in vivo, mouse; conditions: NOD EAE; i.c.v. lentivirus at day 35, qPCR
Protocol: Mononuclear cells were isolated from the CNS as previously described^50 with minor modifications. Naïve and EAE mice were euthanatized, and then subjected to perfusion through the left ventricle with ice-cold sterile PBS. Brains and spinal cord were then removed, minced and enzymatically dissociated with 0.05% (w/v) collagenase type III (Worthington Biochemical), 0.5% Dispase II (Roche Applied Science), 40 μg/ml DNAse I, 20 mM HEPES in HBSS) for 30 min at 37 C to make a suspension of single cells. Enzymes were inactivated with 20 ml of Ca^2+/Mg^2+-free HBSS containing 2 mM EDTA and 20 mM HEPES. The digested tissue was triturated and passed through a […] cell strainer. Cells were centrifuged and resuspended in 30% isotonic Percoll (GE Healthcare) and 40 μg/ml DNAse I, underlined by 70% isotonic Percoll, and centrifuged at 1000×g at 4° C. for 25 min. Cells were collected from the 70%-30% interphase, and sorted by FACS Aria.
These purification procedures are based on previously described dissociation and purification protocols^50,51. Isolated CNS cells, were incubated with anti-Mouse CD16/CD32 for 15 min on ice to block the Fc receptors, and stained with fluorochrome-conjugated antibody for CD11b (M1/70), CD45(90), CD3 (145-2C11), CD4 (GK1.5), and Ly6C (HK1.4), and Biotion-conjugated GSL I—isolectin B4 (Vector labs), CD105 (N418), CD140a (APA5), CD11c (N418), F4/80 (BM8), O4 (O4, Miltenyi Biotec), and CD19 (eBio1D3), and un-conjugated antibodies recognizing mouse MOG (8-18C5, Millipore), O1 (O1), and Galactocerebroside (mGlaC, Millipore). All antibodies were from Ebioscience, unless otherwise mentioned (clone number, when relevant, in parentheses). Cells were washed and incubated PE-conjugated Streptavidin and R-Phycoerythrin AffiniPure F(ab′)2 fragment of Goat Anti-Mouse IgG+IgM (H+L) (Jackson ImmunoResearch laboratories) for 20 min at 4 C in the dark. Cells were washed, incubated with 7-AAD or Fixable Viability Dye eFluor® 450 (if cells were to be used for intracellular staining), for exclusion of dead cells (FIG. S3A), and sorted as following. Microglia were sorted as CD11b^+ cells with low CD45 expression and low Ly6C (CD11b+/CD45^low/Ly6C^low), while the inflammatory monocytes were considered as CD11b^+/Ly6C^high 52. T-cells were sorted as CD3^+CD4^+ cells. Astrocytes were isolated following the depletion of lymphocytes, microglia, monocytes (FIG. S3B), and oligodendrocytes, and lymphocytes (T-cells, B-cells, and NK cells) (FIG. S3C). […] We confirmed that we had isolated a relatively pure populations of astrocytes by qPCR for the astrocyte markers^44,51 gfap, aldh1l1 and aqp4, and found them to be exclusively expressed in the astrocyte fraction (in a similar expression pattern to that of GFP^+ astrocytes sorted from Tg(GFP-hGFAP) FVB transgenic mice^49) (FIG. S3E). We used an additional cohort of markers to explore for presence of immune cells [microglia/monocytes cells—itgam (CD11b), and emr1 (F4/80), dendritic cells—itgax (CD11c), NK cells—Klrb1c (Nk1.1), T-cells—cd3, and B-cells—cd19], oligodendrocytes (mog, mbp), and neurons (syt1, snap25) (FIG. S3F, G).
100-200 ng of total RNA was hybridized with reporter and capture probes for nCounter Gene Expression code sets (Mouse Inflammation Kit, or a custom made astrocyte-oriented probe set (Table S1)), according to manufacturer's instructions (NanoString Technologies). Data were normalized to spiked positive controls and housekeeping genes (nSolver Analysis system). Transcript counts less than the mean of the negative control transcripts plus 2 standard deviations for each sample were considered background.
Nanostring generated gene expression data were analyzed by use of the Expander 6.06 platform^53. Genes were clustered using the unbiased CLICK algorithm, and each cluster was further analyzed for enrichments in transcription factors binding sites (promoter analysis).

C8-D30 astrocytes = experiment: In vitro knock-down with shRNA in C8-D30 astrocytes, LPS/IFNγ activation; type: cell-based, mouse; conditions: lentivirus-delivered shRNA
B4GALT5/6 = experiment: Quantification of LacCer levels in the CNS (LC-MS/MS); type: in vivo, mouse; conditions: NOD EAE; i.c.v. 1×10^7 IU lentivirus at day 35, 10 days after injection
Protocol: Chemical standards of LacCer (d18:1/16:0) and LacCer (d18:1/18:0) were obtained from Avanti Polar Lipids. Quantification of LacCer (d18:1/16:0) and LacCer (d18:1/18:0) was achieved by LC-MS/MS analysis performed on an Agilent (Agilent Technologies, Santa Clara, Calif.) 6460 triple-quadrupole LC/MS/MS system. The fragments from the [M+H]^+ ions for LacCer and internal standard were subjected to collision induced dissociation and the two major types of fragment ions were monitored via electrospray ionization in the positive ion mode in multiple reaction monitoring (MRM) mode for each ion. These two MRM transitions corresponded to the loss of the neutral lactosyl moiety, and to the formation of the lactose ion. Specifically, the MRM transitions used for quantification for LacCer (d18:1/16:0) and LacCer(d18:1/18:0) were 862.5>[…] and 890.6>548.5, respectively. Secondary confirmatory MRM transitions for LacCer(d18:1/16:0) and LacCer(d18:1/18:0) of 862.5>264.3 and 890.6>264.3 were also monitored. Mass spectrometer parameter settings were gas temp (325° C.), gas flow (12 L/min), nebulizer (25 psi), sheath gas temp (400° C.), sheath gas flow (12 L/min), capillary voltage (4000v), and nozzle voltage (500v). Liquid chromatography conditions with an a Phenomenex Gemini C18 column 4.6×50 mm 5 μm particle size was used for separation. Chromatography method the following flow rate=0.4 mLs/min; solvent A=5 mM ammonium formate in 5% MeOH and 0.1% formic acid v/v/v; solvent B=80% 2-propanol, 15% methanol, 5% water and 0.1% formic acid (v/v/v/v). […] Standard curve mixture was analyzed at various concentrations between 0.10 nM to 3.3 μM in LacCer (d18:1/16:0) and an internal standard concentration of 1 μM. The lower limit of quantification was estimated at 1 nM and a R^2 of 0.9969 was obtained using linear regression analysis. […]
The brain tissue was weighed and homogenized using a Dounce homogenizer (VWR), in the extraction solvent using a Bligh and Dyer type liquid-liquid extraction. […] The dried sample was reconstituted in 100 μl of 2:1 chloroform-methanol, and analyzed using the HPLC-MS.

shB4galt5: lentivirus-delivered shRNA against b4galt5 (TRCN0000018782; SEQ ID NO:2) (guide GCAGCCTGAATGACTCAGATTCTCGAGAATCTGAGTCATTCAGGCTGC)
EAE disease progression (EAE NOD mice): but not of b4galt5, suppressed disease progression | b4galt6 and b4galt5 expression in astrocytes (astrocytes): astrocyte-specific knock-down | up-regulation of h2-Aa, ccl5 and cxcl10 expression (C8-D30 astrocytes): did not affect the expression | CNS LacCer levels (B4GALT5/6): but not of b4galt5, led to a significant decrease of CNS LacCer levels
